The target in assay [1] is T1, NAT10 (Homo sapiens, UniProt Q9H0A0).
T1 sequence (Q9H0A0 1-1025): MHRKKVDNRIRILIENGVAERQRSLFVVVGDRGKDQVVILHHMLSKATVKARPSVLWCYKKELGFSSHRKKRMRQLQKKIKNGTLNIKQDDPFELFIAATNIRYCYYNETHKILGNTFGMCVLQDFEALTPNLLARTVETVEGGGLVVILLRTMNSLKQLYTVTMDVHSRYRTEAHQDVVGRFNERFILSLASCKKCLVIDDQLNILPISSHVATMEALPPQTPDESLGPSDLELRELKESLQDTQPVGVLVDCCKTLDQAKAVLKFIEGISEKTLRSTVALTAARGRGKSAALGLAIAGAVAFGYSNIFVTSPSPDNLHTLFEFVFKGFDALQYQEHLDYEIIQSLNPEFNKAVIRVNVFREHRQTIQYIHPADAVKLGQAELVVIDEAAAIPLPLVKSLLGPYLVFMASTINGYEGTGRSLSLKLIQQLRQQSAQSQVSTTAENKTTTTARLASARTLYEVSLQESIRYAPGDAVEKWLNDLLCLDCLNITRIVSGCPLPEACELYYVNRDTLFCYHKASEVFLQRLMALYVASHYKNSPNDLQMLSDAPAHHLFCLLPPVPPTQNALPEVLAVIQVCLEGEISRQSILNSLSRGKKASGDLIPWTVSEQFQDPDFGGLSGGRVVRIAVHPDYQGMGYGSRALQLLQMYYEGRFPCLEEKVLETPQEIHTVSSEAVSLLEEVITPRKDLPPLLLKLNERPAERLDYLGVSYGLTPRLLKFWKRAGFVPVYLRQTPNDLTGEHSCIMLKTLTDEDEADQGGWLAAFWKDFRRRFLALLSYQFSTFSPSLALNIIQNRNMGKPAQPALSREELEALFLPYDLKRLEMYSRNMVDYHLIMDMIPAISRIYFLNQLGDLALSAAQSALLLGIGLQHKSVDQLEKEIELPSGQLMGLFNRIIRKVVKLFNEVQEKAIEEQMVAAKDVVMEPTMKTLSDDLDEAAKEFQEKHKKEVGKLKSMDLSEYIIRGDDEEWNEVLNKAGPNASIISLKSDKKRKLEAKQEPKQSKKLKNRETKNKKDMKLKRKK
As to the kind of experiment: DARTS in MOLM13 lysate. The format is cell-based.

In assay [2] the target is T1, NAT10. In words: DARTS. The format is cell-based.

3 compounds from publication PMC11628400 (Nature Cell Biology, 2024) can be followed below.

In the case of `N#Cc1ccc(-c2csc(NN=C3CCCC3)n2)cc1` [Remodelin], the “DARTS in MOLM13 lysate; CETSA in MonoMac6 cells” value at NAT10 [1] is “Thermal shift curves of NAT10 from CETSA assays in MonoMac6 pretreated with fludarabine (F-ara-A), Remodelin or dimethylsulfoxide (DMSO)”.
For the compound `Nc1nc(F)nc2c1ncn2[C@@H]1O[C@H](COP(=O)(O)OP(=O)(O)OP(=O)(O)O)[C@@H](O)[C@@H]1O` [F-ara-ATP, fludarabine triphosphate], the “DARTS (protection from pronase digestion) in MOLM13 lysate” value on NAT10 [2] was “The binding of fludarabine and F-ara-ATP with NAT10 were confirmed by drug affinity responsive target stability assay (DARTS)”.
`Nc1nc(F)nc2c1ncn2[C@@H]1O[C@H](COP(=O)(O)O)[C@@H](O)[C@@H]1O` [P-F-ara-A, fludarabine (P-F-ara-A)]: the “DARTS (protection from pronase digestion) in MOLM13 lysate” value at NAT10 [2] is “DARTS assays evaluating the efficacy of Remodelin, P-F-ara-A and F-ara-ATP on protecting NAT10 protein against pronase digestion”.
